Patent US9113629B2, “4-amino-6-(4-substituted-phenyl)-picolinates and 6-amino-2-(4-substituted-phenyl)-pyrimidine-4-carboxylates and their use as herbicides” (DOW AGROSCIENCES LLC, priority 2013, dated 2015)

How the values were obtained:
Experiment in all cases: Pre-emergent Test III, preemergent activity in wheat and barley
[1] = tested on: APESV; format: in vivo, Apera spica-venti; conditions: for GR50 APESV / GR80 APESV: 21 days after application, probit analysis; for GR50 APESV: dose to kill or control 50%; for GR80 APESV: dose to kill or control 80%
Experimental: (§1) Pre-emergent Test III. Seeds of test species were planted into square plastic pots (10 cm wide) containing sandy loam soil. After planting, all pots were sub-irrigated 16 h prior to compound application. A weighed amount, determined by the highest rate to be tested, of each test compound was placed in a 25 mL glass vial and was dissolved in 4 mL of a 97:3 v/v mixture of acetone and DMSO to obtain concentrated stock solutions. […] The concentrated stock solutions obtained were diluted with 20 mL of an aqueous mixture containing water and 0.02% w/v (weight/volume) of Triton X-155 to obtain spray solutions containing the highest application rates. Additional application rates were obtained by serial dilution of 12 mL of the high rate solution into a solution containing 2 mL of 97:3 v/v mixture of acetone and DMSO and 10 mL of an aqueous mixture containing water and 0.02% w/v (weight/volume) of Triton X-155 to obtain 1⁄2×, 1⁄4×, 1⁄8× and 1/16× rates of the high rate. Compound requirements are based upon a 12 mL application volume at a rate of 187 liters per hectare (L/ha). Formulated compounds were applied to the soil surface with an overhead Mandel track sprayer equipped with […] nozzles calibrated to deliver 187 L/ha over an application area of 0.503 square meters. Control pots were sprayed in the same manner with the solvent blank. The treated pots and control pots were placed in a greenhouse as described above and watered through surface irrigation. After 21 d, the condition of the test pots as compared with that of the untreated pots was determined visually and scored on a scale of 0 to 100 percent where 0 corresponds to no herbicidal effect and 100 corresponds to plant death or lack of emergence from the soil. By applying the well-accepted probit analysis as described by J. Berkson in Journal of the American Statistical Society, 48, 565 (1953) and by D. Finney in “Probit Analysis” Cambridge University Press (1952), the above data can be used to calculate GR20, GR50, GR80 and GR90 values, which are defined as growth reduction factors that correspond to the effective dose of herbicide required to kill or control 20 percent, 50 percent, 80 percent or 90 percent, respectively, of a target plant.

[2] = tested on: LOLSS; format: in vivo, Lolium multiflorum, Lolium rigidum; conditions: for GR50 LOLSS / GR80 LOLSS: 21 days after application, probit analysis; for GR50 LOLSS: dose to kill or control 50%; for GR80 LOLSS: dose to kill or control 80%
Experimental: as §1

[3] = tested on: SETVI; format: in vivo, Setaria viridis; conditions: for GR50 SETVI / GR80 SETVI: 21 days after application, probit analysis; for GR50 SETVI: dose to kill or control 50%; for GR80 SETVI: dose to kill or control 80%
Experimental: as §1

[4] = tested on: TRZSS; format: in vivo, Triticum aestivum; conditions: for GR20 TRZSS: 21 days after application, dose to kill or control 20%, probit analysis
Experimental: as §1

[5] = tested on: HORSS; format: in vivo, Hordeum vulgare; conditions: for GR20 HORSS: 21 days after application, dose to kill or control 20%, probit analysis
Experimental: as §1

[6] = tested on: LAMSS; format: in vivo; conditions: for GR50 LAMSS / GR80 LAMSS: 21 days after application, probit analysis; for GR50 LAMSS: dose to kill or control 50%; for GR80 LAMSS: dose to kill or control 80%
Experimental: as §1

Compound	Visual Growth Reduction (%) 21 Days After Application, APESV ([1]; 35 g ai/ha)	Visual Growth Reduction (%) 21 Days After Application, APESV ([1]; 70 g ai/ha)	GR50 APESV [1] [g ai/ha]	GR80 APESV [1] [g ai/ha]	Visual Growth Reduction (%) 21 Days After Application, LOLSS ([2]; 35 g ai/ha)	Visual Growth Reduction (%) 21 Days After Application, LOLSS ([2]; 70 g ai/ha)	GR50 LOLSS [2] [g ai/ha]	GR80 LOLSS [2] [g ai/ha]	Visual Growth Reduction (%) 21 Days After Application, SETVI ([3]; 35 g ai/ha)	Visual Growth Reduction (%) 21 Days After Application, SETVI ([3]; 70 g ai/ha)	GR50 SETVI [3] [g ai/ha]	GR80 SETVI [3] [g ai/ha]	Visual Growth Reduction (%) 21 Days After Application, TRZSS ([4]; 35 g ai/ha)	Visual Growth Reduction (%) 21 Days After Application, TRZSS ([4]; 70 g ai/ha)	GR20 TRZSS [4] [g ai/ha]	Visual Growth Reduction (%) 21 Days After Application, HORSS ([5]; 35 g ai/ha)	Visual Growth Reduction (%) 21 Days After Application, HORSS ([5]; 70 g ai/ha)	GR20 HORSS [5] [g ai/ha]	Visual Growth Reduction (%) 21 Days After Application, LAMSS ([6]; 35 g ai/ha)	Visual Growth Reduction (%) 21 Days After Application, LAMSS ([6]; 70 g ai/ha)	further results
Nc1c(F)c(-c2ccc(Br)cc2)nc(C(=O)O)c1Cl [Compound 20]	A (95-100)	A (95-100)	6	16	G (0-29)	E (45-59)	>70	>70	F (30-44)	B (85-94)	32	71	E (45-59)	E (45-59)	10	F (30-44)	E (45-59)	17	A (95-100)	A (95-100)	GR50 LAMSS [6]: 6 g ai/ha; GR80 LAMSS [6]: 9 g ai/ha
Nc1c(F)c(-c2cc(F)c(Br)cc2F)nc(C(=O)O)c1Cl [Compound 42, 4-amino-6-(4-bromo-2,5-difluorophenyl)-3-chloro-5-fluoropicolinic acid]	B (85-94)	A (95-100)	12	27	G (0-29)	G (0-29)	>70	>70	E (45-59)	D (60-74)	36	>70	E (45-59)	E (45-59)	5	F (30-44)	E (45-59)	11	A (95-100)	A (95-100)	GR50 LAMSS [6]: 1 g ai/ha; GR80 LAMSS [6]: 1 g ai/ha
Nc1c(F)c(-c2ccc(Br)c(F)c2F)nc(C(=O)O)c1Cl [Compound 147]	C (75-84)	B (85-94)	19	33	G (0-29)	G (0-29)	52	>70	E (45-59)	C (75-84)	17	>70	F (30-44)	F (30-44)	23	G (0-29)	G (0-29)	70	A (95-100)	A (95-100)	GR50 LAMSS [6]: 1 g ai/ha; GR80 LAMSS [6]: 5 g ai/ha
C=Cc1c(C(=O)O)nc(-c2ccc(Cl)c(F)c2)c(F)c1N [Compound 214]	C (75-84)	A (95-100)	13	28	G (0-29)	E (45-59)	>70	>70	G (0-29)	G (0-29)	>70	>70	G (0-29)	F (30-44)	28	G (0-29)	G (0-29)	93	A (95-100)	A (95-100)	GR50 LAMSS [6]: 1 g ai/ha; GR80 LAMSS [6]: 2 g ai/ha
